Literature values, collected in the CATMoS acute toxicity set (Mansouri et al. 2021).

Assay: rat acute oral toxicity
Conditions: in vivo

| Compound | LD50 [mg/kg] |
| --- | --- |
| CNc1snc2ccccc12 | 400 |
| Cc1nc2ccccc2c(=O)n1-c1ccc(Br)cc1 | 185 |
| FC(F)(F)c1ccc2nc(C(F)(F)F)[nH]c2c1 | 9.02 |
| CCN(CC)C(=S)S | 1000 |
| COc1cc([C@@H]2c3cc4c(cc3[C@H](O[C@@H]3O[C@@H]5COC(c6ccccc6)O[C@H]5[C@H](O)[C@H]3O)[C@H]3COC(=O)[C@H]23)OCO4)cc(OC)c1OC (stereo not given in full) | 823 |
| CCCCCCC[N+](CC)(CC)CCCCc1ccc(Cl)cc1 | 456 |
| O=C1C=CC(=O)N1c1ccc(Cl)cc1 | 440 |
| CC/C=C\CC=O | 1560 |
| CCOC(=O)C1(CCCCCCOc2ccc(Cl)cc2)CO1 (stereo not given) | 250 |
| CCCCC(CC)CCC(CC(C)C)OS(=O)(=O)O (stereo not given) | 1250 |
| CC(Cc1ccccc1)NCCCCl (stereo not given) | 410 |
| CCNC(C)CN1CCc2c(c(=O)oc3ccccc23)C1 (stereo not given) | 300 |
| COc1ccccc1OCC(O)COC(N)=O (stereo not given) | 1320 |
| COC(=O)C(C)Oc1ccc(Oc2ncc(C(F)(F)F)cc2Cl)cc1 (stereo not given) | 393 |
| N#CSCSC#N | 55 |
| C1CN2CCN1CC2 | 1700 |
| COP(=S)(OC)OC1CC(C)CCC1C(C)C (stereo not given) | 750 |
| Clc1ccccc1CN1CCc2sccc2C1 | 1780 |
| COC(=O)c1cc([N+](=O)[O-])ccc1Cl | 5360 |
| O=C(O)c1ccc2ccccc2c1 | 4500 |
| c1ccc(C(N2CCOCC2)N2CCOCC2)cc1 | 5060 |
| Clc1cc2c(c(Cl)c1Cl)Oc1c(Cl)c(Cl)c(Cl)c(Cl)c1O2 | 6.33 |
| O=C(OC1CCC(N2CCCCC2)CC1)C1CCCCC1 (stereo not given) | 2500 |
| CC1=CC(=O)NS(=O)(=O)O1 | 7430 |
| CCC[C@]1(c2cccc(O)c2)CCN(C)C[C@@H]1C | 887 |
| CCOC(=O)c1c[n+](CC)c2n(c1=O)C(C)CCC2 (stereo not given) | 1350 |
| CC(CN1CCN(CCOCCO)CC1)CN1c2ccccc2Sc2ccc(Cl)cc21 (stereo not given) | 400 |
| Cc1c(Cl)c(Cl)c(Cl)c(C(Cl)Cl)c1Cl | 2920 |

| Compound | LD50 [mg/kg] |
| --- | --- |
| Cc1ccc(S(=O)(=O)N(C)N=O)cc1 | 2700 |
| O=C(O)CONC(=O)c1ccccc1 | 2500 |
| Cc1cc(=S)c(N)n[nH]1 | 1980 |
| CCC(C)C(C)(COC(N)=O)COC(N)=O (stereo not given) | 1160 |
| CN(C)CCCCCNc1c2ccccc2nc2cccc([N+](=O)[O-])c12 | 63.3 |
| CC(C)(C(=O)c1cccnc1)c1cccnc1 | 521 |
| CC(=O)OCCCC(=O)CBr | 600 |
| CCOP(=S)(OCC)Oc1cc2ccccc2oc1=O | 13 |
| COc1cc(OC)n2nc(N)nc2n1 | 1030 |
| c1cc(OCC2CO2)ccc1CC1CO1 (stereo not given) | 4290 |
| COC(=O)C(=O)C(O)=C(O)OC | 8000 |
| COc1cc2nc(N3CCN(C(=O)c4ccco4)CC3)nc(N)c2cc1OC | 1950 |
| CC(C)=C1C(=O)N(c2ccccc2)N(c2ccccc2)C1=O | 1280 |
| COP(=S)(OC)C(C(=O)O)c1ccccc1 (stereo not given) | 4500 |
| CCCC(=O)Oc1ccc(OC)cc1 | 3400 |
| COc1cc(CCC(C)=O)ccc1O | 2580 |
| C=C[Si](OCCOC)(OCCOC)OCCOC | 2960 |
| CCOP(=O)(NC(C)C)SCC(=O)NCOC (stereo not given) | 100 |
| CC(C)Cc1ccc(CC(=O)O)cc1 | 2300 |
| O=C1c2ccccc2C(=O)N1CCc1ccccn1 | 860 |
| CN1CCc2ccccc21 | 1250 |
| O=[N+]([O-])c1ccc(/C=N/NC(=S)N2CCCCC2)o1 | 750 |
| CCOS(=O)(=O)OCC | 880 |
| CCOC(CN1CCN(CC(C)C(=O)c2ccccc2)CC1)c1ccccc1 (stereo not given) | 763 |
| O=c1[nH]c2cc(Cl)c(Br)cc2o1 | 500 |
| CCCCCC(C=Cn1ccnc1)OCc1ccccc1 (stereo not given) | 2550 |
| CCC1(CC)C(=O)N=C(O)NC1=O | 600 |
